Laboratory results reported in patent US20250099420A1, “SMALL MOLECULE MODULATORS OF GPR139 COMPLEX” (University of Florida Research Foundation, Incorporated, priority 2022, published 2025).
Read-outs that look alike come from different tables or passages of the source.

How the values were obtained:
GPR139 = molecular target: T1, GPR139 (Homo sapiens, UniProt Q6DWJ6); assay: GPR139 Agonist titration / agonist counterscreen assay (calcium detection, HEK-GPR139 cells); format: cell-based; set-up: expressed in transfected cells; host or cells: HEK Aequorin cells, Maxcyte transient transfection; conditions: GPR139 Agonist Activity; for Averaged Max % Response (±St. Dev.): activity relative to known control; for EC50: read-out: EC50
T1 sequence (Q6DWJ6 1-353): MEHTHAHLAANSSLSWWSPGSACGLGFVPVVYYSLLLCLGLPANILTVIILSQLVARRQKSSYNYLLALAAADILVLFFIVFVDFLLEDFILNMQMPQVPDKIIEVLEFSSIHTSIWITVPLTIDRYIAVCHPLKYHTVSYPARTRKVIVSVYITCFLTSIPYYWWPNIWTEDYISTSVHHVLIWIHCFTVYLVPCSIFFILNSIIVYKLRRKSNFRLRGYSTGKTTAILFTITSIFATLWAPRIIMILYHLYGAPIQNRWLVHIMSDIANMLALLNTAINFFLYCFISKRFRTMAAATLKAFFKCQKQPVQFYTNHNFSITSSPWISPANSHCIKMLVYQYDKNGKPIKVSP
Procedure: GPR activity was assessed using a calcium detection assay. […] Negative control samples were treated with DMSO. […] Intracellular calcium was measured using Calcium 5.

parental HEK cells = assay: HEK parental Agonist Counterscreen Assay (non-transfected cells); format: cell-based; conditions: for Averaged Max % Response (±St. Dev.): activity relative to known control
From the text: The high control for the agonist counterscreen was Forskolin not acetylcholine.

[1] = values printed in E-notation without unit
[2] = HEK Agonist Activity section of Table 4 (parental HEK counterscreen)
[3] = Homo sapiens, HEK293, HEK Agonist Activity section of Table 4 (parental HEK counterscreen)
[4] = HEK Agonist Activity, parental non-transfected HEK cells
[5] = Homo sapiens, HEK293, HEK Agonist Activity, parental non-transfected HEK cells

Row | SMILES | Averaged Max % Response (±St. Dev.) (GPR139) [%] | Lipophilic Efficiency (logD) (GPR139; based on logD) | Lipophilic Efficiency (logP) (GPR139; based on logP) | Hill Slope (GPR139; fitted dose-response curve) | Efficiency Ligand (GPR139; ligand efficiency) | EC50 (GPR139; [1]) [nM] | Lipophilic Efficiency (logD) (parental HEK cells; HEK Agonist Activity section) | Lipophilic Efficiency (logP) (parental HEK cells; HEK Agonist Activity section) | EC50 (parental HEK cells; [2]) [nM] | Averaged Max % Response (±St. Dev.) (parental HEK cells; HEK Agonist Activity section) [%] | Efficiency Ligand (GPR139) | Hill Slope (GPR139) | Lipophilic Efficiency (logD) (GPR139) | Lipophilic Efficiency (logP) (GPR139) | EC50 (GPR139; HEK-GPR139 cells) [nM] | other results
1 | CSc1cccc(NC(=O)C2C3C=CC4(O3)C2C(=O)N(C(C)c2ccccc2)C4C(=O)NC2CCCC(C)C2C)c1 (stereo not drawn) [SR-01000545824] | 103.05 ± 12.22 | 1.92 | 1.92 | 0.41 | 0.23 | 145 | −0.052 | −0.052 | > 13600 | −0.19 ± 3.69 | – | – | – | – | – | –
2 | CSc1cccc(NC(=O)C2C3C=CC4(O3)C2C(=O)N(C(C)c2ccccc2)C4C(=O)NC2CCCCC2)c1 (stereo not drawn) [SR-01000546462] | 107.13 ± 9.94 | 2.98 | 2.98 | 0.51 | 0.26 | 56.5 | 0.56 | 0.56 | > 15100 | 0.58 ± 3.78 | – | – | – | – | – | –
3 | Cc1ccc(CN2CC34C=CC(O3)C(C(=O)NCCC3=CCCCC3)C4C2=O)cc1 (stereo not drawn) [SR-01000550322] | 86.57 ± 2.15 | – | – | – | – | – | 1.99 | 1.99 | > 13400 | −6.25 ± 1.61 | 0.27 | 0.73 | 2.87 | 2.87 | 1800 | –
4 | CCc1cc(C2=C/C(=C/c3c(OC)ccc4ccccc34)C(=O)O2)cc(OC)c1OC [SR-01000551463] | 110.88 ± 6.83 | 3.11 | 3.11 | 0.64 | 0.33 | 49.6 | 0.71 | 0.71 | – | 18.60 ± 9.91 | – | – | – | – | – | EC50 (parental HEK cells; [3]): > 12200 nM
5 | C=C1N=C(NC2CCCCCC2)c2ccccc2N1 [SR-01000565308] | 90.10 ± 8.93 | – | – | – | – | – | 1.03 | 0.98 | – | 25.00 ± 13.25 | 0.45 | 1.89 | 2.40 | 2.36 | – | EC50 (parental HEK cells; [3]): > 17500 nM
6 | Cc1cccc(-n2cnc3cc(C(=O)NCc4ccc5c(c4)OCO5)ccc32)c1 [SR-01000579592] | 96.78 ± 10.47 | – | – | – | – | – | 0.80 | 0.80 | – | −14.67 ± 10.75 | 0.28 | – | 1.75 | 1.75 | > 1500 | EC50 (parental HEK cells; [3]): > 13300 nM
7 | CC12C=CC3(CN(Cc4ccccc4)C(=O)C3C1C(=O)NCc1ccco1)O2 (stereo not drawn) [SR-01000582958] | 101.07 ± 20.22 | 5.28 | 5.28 | 0.87 | 0.33 | 228 | 3.51 | 3.51 | > 13400 | 10.03 ± 5.09 | – | – | – | – | – | –
8 | CC12C=CC3(CN(Cc4ccccc4)C(=O)C3C1C(=O)NCC1COc3ccccc3O1)O2 (stereo not drawn) [SR-01000582967] | 117.27 ± 2.34 | – | – | – | – | – | 2.93 | 2.93 | > 13100 | −6.63 ± 2.99 | 0.27 | 0.38 | 4.47 | 4.47 | 375 | –
9 | CC1CC(C)CN(C(=O)C2C3C=CC4(CN(Cc5ccccc5Cl)C(=O)C24)O3)C1 (stereo not drawn) [SR-01000583192] | 108.22 ± 25.63 | 4.61 | 4.61 | 0.51 | 0.35 | 48.1 | 2.09 | 2.09 | > 15900 | 13.45 ± 13.24 | – | – | – | – | – | –
10 | O=C(NCCc1ccc(Cl)cc1)c1ccc(N2CC3CC(C2)c2cccc(=O)n2C3)c(NS(=O)(=O)c2ccc3c(c2)OCCO3)c1 (stereo not drawn) [SR-01000583473] | 116.62 ± 3.81 | 3.89 | 3.71 | 0.26 | 0.23 | 40.1 | – | – | – | – | – | – | – | – | – | Hill Slope (parental HEK cells; HEK Agonist Activity): 0.45; Lipophilic Efficiency (logD) (parental HEK cells; HEK Agonist Activity): 1.64; Lipophilic Efficiency (logP) (parental HEK cells; HEK Agonist Activity): 1.46; Averaged Max % Response (±St. Dev.) (parental HEK cells; HEK Agonist Activity): 54.64 ± 8.92%; EC50 (parental HEK cells; [4]): 7200 nM
11 | O=C(CN1CC(=O)N(Cc2ccc(O)cc2)C(c2ccccc2Cl)C1=O)NCc1ccco1 (stereo not drawn) [SR-01000583711] | 95.83 ± 14.92 | – | – | – | – | – | 1.87 | 1.87 | – | 9.29 ± 2.62 | 0.27 | 0.32 | 3.24 | 3.24 | 469 | EC50 (parental HEK cells; [3]): > 11100 nM
12 | COP(=O)(CN(CCc1ccc(Cl)cc1)C(=O)Nc1ccc(Cl)c(Cl)c1)OC [SR-01000584158] | 123.61 ± 28.77 | 2.25 | 2.25 | 0.47 | 0.37 | 36.6 | – | – | – | – | – | – | – | – | – | Lipophilic Efficiency (logD) (parental HEK cells; HEK Agonist Activity): −0.34; Lipophilic Efficiency (logP) (parental HEK cells; HEK Agonist Activity): −0.34; Averaged Max % Response (±St. Dev.) (parental HEK cells; HEK Agonist Activity): 0.77 ± 6.52%; EC50 (parental HEK cells; [4]): > 14100 nM
13 | CCn1c(=O)n(CC(=O)NCC2COc3ccccc3O2)c(=O)c2ccccc21 (stereo not drawn) [SR-01000589950] | 90.30 ± 31.36 | 5.98 | 5.98 | 0.72 | 0.36 | 36.4 | – | – | – | – | – | – | – | – | – | Lipophilic Efficiency (logD) (parental HEK cells; HEK Agonist Activity): 3.39; Lipophilic Efficiency (logP) (parental HEK cells; HEK Agonist Activity): 3.39; Averaged Max % Response (±St. Dev.) (parental HEK cells; HEK Agonist Activity): −9.62 ± 21.31%; EC50 (parental HEK cells; [5]): > 14100 nM
14 | Nc1ccc2c(C(F)(F)F)cc(=O)oc2c1 [SR-01000597171] | 177.62 ± 11.26 | – | – | – | – | – | 3.35 | 3.35 | 10700 | 92.06 ± 10.88 | 0.47 | – | 3.74 | 3.74 | > 4400 | Hill Slope (parental HEK cells; HEK Agonist Activity section): 2.90
15 | Cc1onc(-c2ccccc2Cl)c1C(=O)NNC(=O)CSc1ccccc1[N+](=O)[O-] [SR-01000633083] | 100.43 ± 4.95 | 4.82 | 4.81 | 0.91 | 0.38 | 6.7 | – | – | – | – | – | – | – | – | – | Lipophilic Efficiency (logD) (parental HEK cells; HEK Agonist Activity): 1.49; Lipophilic Efficiency (logP) (parental HEK cells; HEK Agonist Activity): 1.48; Averaged Max % Response (±St. Dev.) (parental HEK cells; HEK Agonist Activity): 21.09 ± 6.01%; EC50 (parental HEK cells; [5]): > 14100 nM
16 | Cc1nn(-c2ccccc2)nc1C(=O)NNC(=O)CSCc1cccc2ccccc12 [SR-01000634249] | 89.30 ± 20.10 | – | – | – | – | – | 1.65 | 1.65 | > 14100 | 7.70 ± 7.23 | 0.26 | 0.69 | 2.57 | 2.57 | 1700 | –
17 | COc1cc(C(=O)NNC(=O)C(C)Oc2ccc(Cl)cc2Cl)cc(OC)c1OC (stereo not drawn) [SR-01000644888] | 113.87 ± 14.45 | – | – | – | – | – | 1.84 | 1.80 | – | 30.23 ± 7.95 | 0.31 | 0.74 | 3.44 | 3.40 | 352 | EC50 (parental HEK cells; [3]): > 14100 nM
18 | COc1ccc(CCNC(=O)c2cccc(-c3ccc(OC)nc3)c2)cc1 [SR-01000652579] | 108.92 ± 9.07 | 3.26 | 3.26 | 0.44 | 0.36 | 93.2 | 1.08 | 1.08 | > 14200 | 11.17 ± 6.82 | – | – | – | – | – | –
19 | COc1ccc(CCNC(=O)c2cnc(N3CCCC3CO)s2)cc1 (stereo not drawn) [SR-01000652673] | 123.26 ± 12.43 | 5.68 | 5.68 | 0.93 | 0.44 | 11.5 | – | – | – | – | – | – | – | – | – | Lipophilic Efficiency (logD) (parental HEK cells; HEK Agonist Activity): 2.61; Lipophilic Efficiency (logP) (parental HEK cells; HEK Agonist Activity): 2.61; Averaged Max % Response (±St. Dev.) (parental HEK cells; HEK Agonist Activity): 3.95 ± 2.97%; EC50 (parental HEK cells; [5]): > 13400 nM
